Among the test systems are A549; K562; NCI-H23; HCC 2998; SNB-19; HCT-15; SF-539; CCRF-CEM; TK-10; U-251; SK-OV-3; NCI-H522; CAKI-1; UO-31; SF-295; SK-MEL-2; NCI-H226.
Assay in all cases: NCI tumour cell line growth inhibition, 48 h

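Interpolation was linear, between the two tested concentrations surrounding the appropriate level; five concentrations were tested over 48 hours in 96-well plates. Abbreviation: GI50, concentration required for 50% inhibition of growth.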 Active and inactive are the calls of the source. No stated cut-off is given here; in the data, active = GI50 up to about 1.1 µM and inactive = higher. A value given as a limit tells only on which side of the number the result lay.

Turning to `CC1(C)C=C(N2CCN(C3=CC(C)(C)NC(C)(C)C3)CC2)CC(C)(C)N1`, the GI50 was > 100 µM (inactive) in the assay on A549; > 100 µM (inactive) in the assay with K562; > 100 µM (inactive) in the assay with NCI-H23; > 100 µM (inactive) in the assay with HCC 2998; > 100 µM (inactive) in the assay on SNB-19; greater than 100 µM in the assay with HCT-15. Moreover, the GI50 with SF-539, with CCRF-CEM, in the assay on TK-10, in the assay with U-251, with SK-OV-3 and in the assay with NCI-H522 was > 100 µM (inactive) in each case. Besides, the GI50 in the assay on CAKI-1, in the assay on UO-31 and with SF-295 was > 100 µM (inactive) throughout.

In the case of `COc1ccc2c(c1)[n+]([O-])c(C(=O)CC(=O)C(=O)Nc1cccc(C)c1C)c(C)[n+]2[O-]`, the GI50 in the assay with A549, in the assay with K562, in the assay with SK-MEL-2, with NCI-H23, with HCC 2998 and with SNB-19 was > 100 µM (inactive) throughout. In addition, the GI50 is greater than 100 µM in the assay on HCT-15; > 100 µM (inactive) in the assay with SF-539; > 100 µM (inactive) with CCRF-CEM; > 100 µM (inactive) with TK-10; > 100 µM (inactive) in the assay on U-251; > 100 µM (inactive) with SK-OV-3. Besides, the GI50 with NCI-H522, with CAKI-1, with UO-31, in the assay with SF-295 and in the assay on NCI-H226 was > 100 µM (inactive) each time.

`CCOC(=O)CCC(=O)C1c2cccc(O)c2C(=O)c2c(O)cc(C)cc21` (stereo unspecified): the GI50 in the assay on A549 was 0.695 µM (active); with K562, 0.429 µM (active); in the assay with SK-MEL-2, 0.344 µM (active); with NCI-H23, 0.962 µM (active); in the assay on HCC 2998 it was 0.507 µM (active); with SNB-19 it was 0.327 µM (active). In addition, the GI50 in the assay on HCT-15 was 0.826 µM; in the assay on SF-539 it was 0.226 µM (active); in the assay on CCRF-CEM, 0.519 µM (active); in the assay with TK-10 it was 1.87 µM (inactive); in the assay with U-251, 0.252 µM (active); in the assay on SK-OV-3 it was 0.865 µM (active). Also, the GI50 in the assay on NCI-H522 was 0.392 µM (active); with CAKI-1, 1.79 µM (inactive); in the assay on UO-31, 0.627 µM (active); with SF-295 it was 0.332 µM (active); with NCI-H226, 0.719 µM (active).

`Cc1ccc(N2C(=O)/C(=C3\Sc4c(nc(C)n(C)c4=O)N3c3ccccc3)SC2=S)cc1`: the GI50 in the assay with A549 is 49.2 µM (inactive); with K562, > 100 µM (inactive); in the assay on SK-MEL-2 it was > 100 µM (inactive); in the assay on NCI-H23 it was > 100 µM (inactive); in the assay on HCC 2998, > 100 µM (inactive); in the assay on SNB-19, 49.4 µM (inactive). Also, the GI50 was greater than 100 µM with HCT-15; 15.3 µM (inactive) with SF-539; > 100 µM (inactive) with CCRF-CEM; 32.8 µM (inactive) with TK-10; 42.7 µM (inactive) in the assay with U-251; 54.8 µM (inactive) with SK-OV-3. Moreover, the GI50 is > 100 µM (inactive) in the assay with NCI-H522; 41.3 µM (inactive) with CAKI-1; > 100 µM (inactive) in the assay with UO-31; 52.7 µM (inactive) in the assay with SF-295; 26 µM (inactive) with NCI-H226.

Regarding `CC1COC(C)(C)P(=O)(c2ccccc2)C1` (stereo unspecified), the GI50 in the assay with A549, in the assay with K562, in the assay with SK-MEL-2, in the assay on NCI-H23, in the assay on HCC 2998 and in the assay on SNB-19 was > 100 µM (inactive) throughout. Moreover, the GI50 in the assay on HCT-15 is greater than 100 µM; with SF-539, > 100 µM (inactive); in the assay with CCRF-CEM it was > 100 µM (inactive); with TK-10 it was > 100 µM (inactive); in the assay on U-251, > 100 µM (inactive); in the assay on SK-OV-3, > 100 µM (inactive). Also, the GI50 in the assay on NCI-H522, in the assay with UO-31, in the assay with SF-295 and with NCI-H226 was > 100 µM (inactive) each time.

Regarding `COc1ccc(Cn2c(C)nc3c2C(=O)c2ccccc2C3=O)cc1`, the GI50 with A549 was 8.61 µM (inactive); with K562 it was 3.2 µM (inactive); in the assay with SK-MEL-2, 13.2 µM (inactive); with NCI-H23, 7 µM (inactive); with HCC 2998, 18.8 µM (inactive); in the assay with SNB-19, 22.3 µM (inactive). Also, the GI50 is 1.72 µM in the assay with HCT-15; 3.81 µM (inactive) with SF-539; 4.05 µM (inactive) in the assay with CCRF-CEM; 11 µM (inactive) with TK-10; 6.32 µM (inactive) in the assay with U-251; 14.8 µM (inactive) in the assay with SK-OV-3. Further, the GI50 in the assay with NCI-H522 was 6.01 µM (inactive); with UO-31 it was 10.5 µM (inactive); in the assay on SF-295, 9.48 µM (inactive); in the assay on NCI-H226, 14.3 µM (inactive).

Regarding `CC(=O)OCc1c2ccccc2c(C)c2c1cc(F)c1ccccc12`, the GI50 in the assay on A549 was 32.4 µM (inactive); in the assay with K562, 21.2 µM (inactive); with SK-MEL-2 it was 15.2 µM (inactive); with NCI-H23, 23.1 µM (inactive); in the assay on HCC 2998, 25.9 µM (inactive); in the assay on SNB-19 it was 28.9 µM (inactive). In addition, the GI50 with SF-539 was 23.8 µM (inactive); in the assay on CCRF-CEM, 12.2 µM (inactive); in the assay with TK-10, > 100 µM (inactive); in the assay with U-251, 23.7 µM (inactive); in the assay on SK-OV-3 it was 52.5 µM (inactive); in the assay with NCI-H522, 12.2 µM (inactive). Further, the GI50 with CAKI-1 was 31 µM (inactive); in the assay with UO-31 it was 38 µM (inactive); in the assay on SF-295, 29.6 µM (inactive); with NCI-H226, 25.9 µM (inactive).

`COc1ccc(CCNCc2cccc(OC)c2OC)cc1OC`: the GI50 in the assay on A549, in the assay on K562, in the assay with SK-MEL-2, in the assay on NCI-H23, in the assay on HCC 2998 and in the assay with SNB-19 was > 100 µM (inactive) throughout. For the same compound, the GI50 in the assay on HCT-15 was greater than 100 µM; in the assay with CCRF-CEM, > 100 µM (inactive); in the assay with TK-10, > 100 µM (inactive); in the assay with SK-OV-3, > 100 µM (inactive); in the assay on NCI-H522, > 100 µM (inactive); in the assay with CAKI-1, > 100 µM (inactive). For the same compound, the GI50 in the assay with UO-31 and in the assay with SF-295 was > 100 µM (inactive) each time.

As for `COC(=O)C1=C(c2cc(OC)c(OC)c(OC)c2)OC(c2cc(OC)c(OC)c(OC)c2)C1` (stereo unspecified), the GI50 in the assay with A549 is 36.5 µM (inactive); in the assay on K562, 28.8 µM (inactive); in the assay with NCI-H23, 19.5 µM (inactive); with HCC 2998 it was 20.1 µM (inactive); in the assay on SNB-19, 19.5 µM (inactive); in the assay with HCT-15, 22.7 µM. The GI50 is 34.4 µM (inactive) in the assay on SF-539; 24.1 µM (inactive) in the assay with CCRF-CEM; 25 µM (inactive) in the assay on TK-10; 20.5 µM (inactive) in the assay with U-251; 25.6 µM (inactive) in the assay on SK-OV-3; 21.8 µM (inactive) with CAKI-1. For the same compound, the results for the GI50 with UO-31, with SF-295 and in the assay with NCI-H226 were 12.3 µM (inactive), 20.5 µM (inactive) and 17.1 µM (inactive), respectively.

Take `CC(=O)C(CN(C(C)C)C(C)C)C(c1ccccc1)c1c(O)c2ccccc2oc1=O` (stereo unspecified): the GI50 is > 100 µM (inactive) in the assay with A549; > 100 µM (inactive) in the assay on K562; > 100 µM (inactive) in the assay with SK-MEL-2; > 100 µM (inactive) with NCI-H23; > 100 µM (inactive) with SNB-19; greater than 100 µM with HCT-15. The GI50 with SF-539 was > 100 µM (inactive); in the assay with CCRF-CEM it was > 100 µM (inactive); in the assay with TK-10, > 100 µM (inactive); in the assay with U-251 it was 56.2 µM (inactive); in the assay on SK-OV-3, > 100 µM (inactive); in the assay with NCI-H522 it was > 100 µM (inactive). Besides, the GI50 in the assay on CAKI-1, in the assay on UO-31, with SF-295 and in the assay with NCI-H226 was > 100 µM (inactive) throughout.

For `COc1cc(/C=C2\[C@@H]3NC(Cc4c(OC)c(C)c(OC)c(OC)c43)C(=O)N2Cc2ccccc2)c(OC)c(C)c1OC`, the GI50 with A549 was 41.5 µM (inactive); with K562 it was 34.3 µM (inactive); with SK-MEL-2, 19.9 µM (inactive); with NCI-H23 it was 49.7 µM (inactive); with HCC 2998 it was 38.6 µM (inactive); in the assay with SNB-19, 80.5 µM (inactive). Besides, the GI50 was 66.4 µM (inactive) in the assay with SF-539; 30.8 µM (inactive) with CCRF-CEM; 40.6 µM (inactive) in the assay with TK-10; 35.2 µM (inactive) in the assay with U-251; 26.2 µM (inactive) in the assay with SK-OV-3; 18.4 µM (inactive) in the assay on NCI-H522. The GI50 in the assay with CAKI-1 was 48 µM (inactive); in the assay on UO-31 it was 27 µM (inactive); in the assay on SF-295 it was 40.8 µM (inactive); with NCI-H226, 36.7 µM (inactive).

Consider `CC(CC[C@@H](C)C1CCC2[C@@H]3CC(O)C4CC(O)[C@@H](O)C[C@]4(C)C3CC[C@@]21C)C(C)(C)C` (stereo partly specified), for which the GI50 in the assay on A549, in the assay with K562, in the assay on SK-MEL-2, in the assay on NCI-H23, with HCC 2998 and with SNB-19 was > 100 µM (inactive) throughout. For the same compound, the GI50 with HCT-15 is greater than 100 µM; with SF-539 it was > 100 µM (inactive); with CCRF-CEM it was > 100 µM (inactive); in the assay with TK-10, > 100 µM (inactive); in the assay on U-251 it was > 100 µM (inactive); in the assay with SK-OV-3, > 100 µM (inactive). Besides, the GI50 in the assay on CAKI-1, in the assay with UO-31, with SF-295 and in the assay with NCI-H226 was > 100 µM (inactive) each time.

The values above are taken from ChEMBL document CHEMBL1201862, “PubChem BioAssay data set” (2004).
